Measurements reported in US20220062299A1, “USE OF GLUCOCORTICOID STEROIDS IN PREVENTING AND TREATING CONDITIONS OF MUSCLE WASTING, AGING AND METABOLIC DISORDER” (NORTHWESTERN UNIVERSITY, priority 2018, published 2022).

Assays:
[1] = test system: isolated dystrophic myofibers; experiment: 2-NBDG uptake assay in live myofibers; assay type: in vivo, mouse; details: mdx mice; weekly prednisone
Protocol: 2-NBDG uptake assay and glycemia/lactate monitoring. 2-NBDG uptake assay in live myofibers was conducted adapting previously reported conditions (Zou et al., 2005). FDB muscles were collected and carefully treated with collagenase type II and hand pipetting to liberate single myofibers, following reported procedures (Demonbreun and McNally, 2015). Myofibers from two FDB muscles were collected in 1 ml Ringer's solution (for 1 l, 7.2 g NaCl, 0.17 g CaCl2, 0.37 g KCl; pH, 7.4). 200 μl of myofiber suspension were dispensed per well of chambered coverglass (#155382; Thermo Fisher, Waltham, Mass.) and imaged as baseline condition for both transmitted light (1 ms integration) and green fluorescent channels (100 ms integration) at the Zeiss Axio Observer A1 microscope, using 20× short-range objective and the ZEN 2 software (version 2011; Zeiss, Jena, Germany). […] 2-NBDG uptake was quantitated as relative fluorescent units, calculated as intra-myofiber fluorescence after incubation subtracted of average baseline fluorescence. Fluorescence intensity was quantitated through serial analysis of acquired images (3 areas of approximately 85 μm^2 were analyzed for average fluorescence value per myofiber; >10 myofibers were analyzed per mouse) with ImageJ software (Schneider et al., 2012). […]

mdx muscles = experiment: Muscle metabolomics of mdx quadriceps; assay type: in vivo, mouse; details: 4 wk exposure
Protocol: Muscle metabolomics. Total hydrophilic metabolite content was extracted from quadriceps muscle tissue at treatment endpoint through methanol-water (80:20) extraction, adapting conditions described previously (Bruno et al., 2018). Briefly, total metabolite content from quadriceps muscle was obtained from approximately 100 mg (wet weight) quadriceps muscle tissue per animal. Frozen (−80° C.) muscle was pulverized in liquid nitrogen and homogenized with approximately 250 μl 2.3 mm zirconia/silica beads (Cat #11079125z, BioSpec, Bartlesville, Okla.) in 1 ml methanol/water 80:20 (vol/vol) by means of Mini-BeadBeater-16 (Cat #607, Biospec, Bartlesville, Okla.) for 1 minute. After centrifuging at 5000 rpm for 5 minutes, 200 μl of supernatant were transferred into a tube pre-added with 800 μL of ice-cold methanol/water 80% (vol/vol). Samples were vortexed for 1 minute, and then centrifuged at approximately 20,160×g for 15 minutes at 4° C. Metabolite-containing extraction solution was then dried using SpeedVac (medium power). 200 ul of 50% Acetonitrile were added to the tube for reconstitution following by overtaxing for 1 minute. Samples solution were then centrifuged for 15 minutes at 20,000 g, 4° C. Supernatant was collected for LC-MS analysis for Hydrophilic Metabolites Profiling as follows. Samples were analyzed by High-Performance Liquid Chromatography and High-Resolution Mass Spectrometry and Tandem Mass Spectrometry (HPLC-MS/MS). Specifically, system consisted of a Thermo Q-Exactive in line with an electrospray source and an Ultimate3000 (Thermo) series HPLC consisting of a binary pump, degasser, and auto-sampler outfitted with a Xbridge Amide column (Waters; dimensions of 4.6 mm×100 mm and a 3.5 μm particle size). The mobile phase A contained 95% (vol/vol) water, 5% (vol/vol) acetonitrile, 20 mM ammonium hydroxide, 20 mM ammonium acetate, pH=9.0; B was 100% Acetonitrile. […] The capillary of the ESI source was set to 275° C., with sheath gas at 45 arbitrary units, auxiliary gas at 5 arbitrary units and the spray voltage at 4.0 kV. In positive/negative polarity switching mode, an m/z scan range from 70 to 850 was chosen and MS1 data was collected at a resolution of 70,000. The automatic gain control (AGC) target was set at 1×10^6 and the maximum injection time was 200 ms. The top 5 precursor ions were subsequently fragmented, in a data-dependent manner, using the higher energy collisional dissociation (HCD) cell set to 30% normalized collision energy in MS2 at a resolution power of 17,500. The sample volumes of 25 μl were injected. Data acquisition and analysis were carried out by Xcalibur 4.0 software and Tracefinder 2.1 software, respectively (both from Thermo Fisher Scientific). Metabolite levels were analyzed as peak area normalized to wet tissue weight and total […] content. Gene-metabolite pathway enrichment was conducted using the MetaboAnalyst platform (v4.0; Joint Pathway Analysis mode) (Chong et al., 2018). Pulsatile glucocorticoid exposure enhanced mitochondrial respiration in dystrophic muscle through BCAA. […] This correlated with increased catabolism of BCAAs, seen as reduced levels of precursors and intermediates and increased levels of oxoglutarate and succinate in the TCA cycle (FIG. 1B, center). […] Opposing shifts were confirmed by HPLC analyses of muscle ATP and NAD^+and by resting blood lactate (FIGS. 5A and 5B), and these changes correlated with parallel shifts in muscle glycogen content (FIG. 5C).

With C[C@]12C=CC(=O)C=C1CC[C@@H]1[C@@H]2C(=O)C[C@@]2(C)[C@H]1CC[C@]2(O)C(=O)CO [prednisone, Prednisone] the “myogenic glucose uptake (2-NBDG in isolated myofibers)” value [1] was “enhanced”, the “BCAA and glucose catabolism” value (mdx muscles; daily prednisone) was “substantial impairment” and the “NAD+ and NADH in muscle” value (mdx muscles; daily prednisone) was “loss”. The “Glycolysis (levels of pyruvate and lactate)” value (mdx muscles; weekly prednisone) was “increased”, the “catabolism of BCAAs” value (mdx muscles; weekly prednisone) was “increased” and the “ATP, phosphocreatine, and NAD+ in muscle” value (mdx muscles; weekly prednisone, vs vehicle) was “increased”.
